Each structure is given as a SMILES string. Some results are limits rather than exact numbers.

USP7, sequence (Q93009 208-1102): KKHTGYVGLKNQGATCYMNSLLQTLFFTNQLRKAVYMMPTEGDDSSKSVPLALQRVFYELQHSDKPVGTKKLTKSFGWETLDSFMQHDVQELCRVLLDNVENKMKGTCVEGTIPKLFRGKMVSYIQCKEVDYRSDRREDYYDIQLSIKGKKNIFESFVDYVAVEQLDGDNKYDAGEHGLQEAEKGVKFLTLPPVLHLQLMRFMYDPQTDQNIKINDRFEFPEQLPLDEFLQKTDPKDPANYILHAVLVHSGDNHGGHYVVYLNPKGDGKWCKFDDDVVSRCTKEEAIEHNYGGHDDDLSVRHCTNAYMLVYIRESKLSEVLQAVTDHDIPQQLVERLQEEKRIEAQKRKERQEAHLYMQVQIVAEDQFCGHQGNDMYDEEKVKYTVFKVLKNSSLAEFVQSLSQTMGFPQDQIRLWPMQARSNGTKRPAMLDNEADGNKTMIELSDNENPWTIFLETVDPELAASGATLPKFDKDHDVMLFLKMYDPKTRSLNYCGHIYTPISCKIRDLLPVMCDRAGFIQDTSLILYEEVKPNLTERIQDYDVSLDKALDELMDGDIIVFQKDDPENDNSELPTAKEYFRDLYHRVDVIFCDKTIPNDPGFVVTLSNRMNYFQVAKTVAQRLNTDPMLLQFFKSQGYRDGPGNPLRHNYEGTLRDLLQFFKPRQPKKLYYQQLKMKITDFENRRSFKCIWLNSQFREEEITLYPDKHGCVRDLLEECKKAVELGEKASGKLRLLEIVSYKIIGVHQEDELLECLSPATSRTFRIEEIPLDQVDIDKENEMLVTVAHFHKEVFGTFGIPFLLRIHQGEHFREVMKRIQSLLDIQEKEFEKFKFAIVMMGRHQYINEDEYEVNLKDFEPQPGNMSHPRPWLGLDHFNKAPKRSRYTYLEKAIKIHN

For the experiment, the target named is USP7 (Homo sapiens (Human), UniProt Q93009). As to the kind of experiment: USP7 Assay B (Ubitquin-Rhodamine110 Assay). It counts as biochemical. Particulars: Ub-Rh110 substrate 25 nM. As to the method:
Stock compound solutions were stored at −20° C. as 10 mM in DMSO. […] Prestamped assay plates were allowed to come to room temperature on the day of the assay. For the screen, 100 nL of 2 mM was pre-dispensed for a final screening concentration of 10 μM (DMSO(fc)=0.5%). […] Unless otherwise indicated, all follow-up assays were run on triplecate plates. […] Pre-stamped with compounds were either not preincubated or preincubated with USP7 between 30 to 120 minutes prior to the addition of 10 μL of 2×Ub-Rh110 to compound plates. Plates were incubated stacked for either 23 or 45 minutes at room temperature before fluorescence was read on the Envision (Excitation at 485 nm and Emission at 535 nm; Perkin Elmer) or on the PheraSTAR (Excitation at 485 nm and Emission at 535 nm; BMG Labtech).
Data from USP7 Assays A and B were reported as percent inhibition (inh) compared with control wells based on the following equation: % inh=1−((FLU−AveLow)/(AveHigh−AveLow)) where FLU=measured Fluorescence (See Tables 2 and 3). AveLow=average Fluorescence of no enzyme control (n=16). AveHigh=average Fluorescence of DMSO control (n=16). IC50 values were determined by curve fitting of the standard 4 parameter logistic fitting algorithm included in the Activity Base software package: IDBS XE Designer Model205. Data is fitted using the Levenburg Marquardt algorithm.
One may read the IC50 as the concentration that inhibits the measured activity by half. The low end stands for greater potency in that assay, the high end for weaker potency in that assay. For the compound `O=C(c1ccc(-c2ccc(C(=O)N3CCC(O)(Cn4cnn5cccc5c4=O)CC3)c(Cl)c2)cc1)N1CCCC1` [Compound I-51, 3-((1-(3-chloro-4′-(pyrrolidine-1-carbonyl)-[1,1′-biphenyl]-4-carbonyl)-4-hydroxypiperidin-4-yl)methyl)pyrrolo[2,1-f][1,2,4]triazin-4(3H)-one], the IC50 is 1 to 10 µM.
The value for `O=C(c1ccc(Cn2nnc3ccccc32)cc1)N1CCC(O)(Cn2cnn3cccc3c2=O)CC1` [Compound I-68, 3-((1-(4-((1H-benzo[d][1,2,3]triazol-1-yl)methyl)benzoyl)-4-hydroxypiperidin-4-yl)methyl)pyrrolo[2,1-f][1,2,4]triazin-4(3H)-one] was 1 to 10 µM; that for `Cc1cccc(NC(=O)Nc2cc3c(=O)n(CC4(O)CCN(C(=O)C5CC5)CC4)cnn3c2)c1C` [Compound I-98, 1-(3-((1-(cyclopropanecarbonyl)-4-hydroxypiperidin-4-yl)methyl)-4-oxo-3,4-dihydropyrrolo[2,1-f][1,2,4]triazin-6-yl)-3-(2,3-dimethylphenyl)urea] was more than 10 µM; that for `O=C(c1cccc(-c2ccc(Cl)cc2)c1)N1CCC(O)(Cn2cnn3cccc3c2=O)CC1` [Compound I-12, 3-((1-(4′-chloro-[1,1′-biphenyl]-3-carbonyl)-4-hydroxypiperidin-4-yl)methyl)pyrrolo[2,1-f][1,2,4]triazin-4(3H)-one] was 1 to 10 µM.
The value for `CC(CC(=O)N1CCC(O)(Cn2cnn3cccc3c2=O)CC1)n1cccc1` (stereo not drawn) [Compound I-57, 3-((1-(3-(1H-pyrrol-1-yl)butanoyl)-4-hydroxypiperidin-4-yl)methyl)pyrrolo[2,1-f][1,2,4]triazin-4(3H)-one] was less than 0.2 µM; that for `N#Cc1ccc(-c2cccc(C(=O)N3CCC(O)(Cn4cnn5cccc5c4=O)CC3)c2)cc1` [Compound I-19, 3′-(4-hydroxy-4-((4-oxopyrrolo[2,1-f][1,2,4]triazin-3(4H)-yl)methyl)piperidine-1-carbonyl)-[1,1′-biphenyl]-4-carbonitrile] was more than 10 µM; that for `O=C(Nc1cc2c(=O)n(CC3(O)CCN(C(=O)C4CC4)CC3)cnn2c1)c1csc(-c2ccccc2)n1` [Compound I-112, N-(3-((1-(cyclopropanecarbonyl)-4-hydroxypiperidin-4-yl)methyl)-4-oxo-3,4-dihydropyrrolo[2,1-f][1,2,4]triazin-6-yl)-2-phenylthiazole-4-carboxamide] was 1 to 10 µM.
The value for `Cc1cc2c(=O)n(CC3(O)CCN(C(=O)C(C)Cc4ccccc4)CC3)cnn2c1` (stereo not drawn) [Compound I-84, 3-((4-hydroxy-1-(2-methyl-3-phenylpropanoyl)piperidin-4-yl)methyl)-6-methylpyrrolo[2,1-f][1,2,4]triazin-4(3H)-one] was 1 to 10 µM; that for `Cc1ccc(CNC(=O)Nc2cc3c(=O)n(CC4(O)CCN(C(=O)C5CC5)CC4)cnn3c2)cc1` [Compound I-92, 1-(3-((1-(cyclopropanecarbonyl)-4-hydroxypiperidin-4-yl)methyl)-4-oxo-3,4-dihydropyrrolo[2,1-f][1,2,4]triazin-6-yl)-3-(4-methylbenzyl)urea] was more than 10 µM; that for `CCNC(=O)c1ccc(-c2ccc(C(=O)N3CCC(O)(Cn4cnn5cccc5c4=O)CC3)cc2)cc1` [Compound I-41, N-ethyl-4′-(4-hydroxy-4-((4-oxopyrrolo[2,1-f][1,2,4]triazin-3(4H)-yl)methyl)piperidine-1-carbonyl)-[1,1′-biphenyl]-4-carboxamide] was more than 10 µM.
In the case of `C[C@H](CC(=O)N1CCC(O)(Cn2cnn3cccc3c2=O)CC1)c1ccccc1` [Compound I-56, (R)-3-((4-hydroxy-1-(3-phenylbutanoyl)piperidin-4-yl)methyl)pyrrolo[2,1-f][1,2,4]triazin-4(3H)-one], the IC50 was less than 0.2 µM.
Compound `N#Cc1ccc(NC(=O)Nc2cc3c(=O)n(CC4(O)CCN(C(=O)C5CC5)CC4)cnn3c2)cc1` [Compound I-100, 1-(4-cyanophenyl)-3-(3-((1-(cyclopropanecarbonyl)-4-hydroxypiperidin-4-yl)methyl)-4-oxo-3,4-dihydropyrrolo[2,1-f][1,2,4]triazin-6-yl)urea] displayed an IC50 of more than 10 µM.
In turn, `O=C(c1cccc(-c2ccc3c(c2)OCO3)c1)N1CCC(O)(Cn2cnn3cccc3c2=O)CC1` [Compound I-5, 3-((1-(3-(benzo[d][1,3]dioxol-5-yl)benzoyl)-4-hydroxypiperidin-4-yl)methyl)pyrrolo[2,1-f][1,2,4]triazin-4(3H)-one] had a 50% inhibitory concentration (IC50) of 1 to 10 µM.
Take `O=C(c1ccc(-c2ccc3ocnc3c2)cc1)N1CCC(O)(Cn2cnn3cccc3c2=O)CC1` [Compound I-47, 3-((1-(4-(benzo[d]oxazol-5-yl)benzoyl)-4-hydroxypiperidin-4-yl)methyl)pyrrolo[2,1-f][1,2,4]triazin-4(3H)-one]: the IC50 was more than 10 µM.
With `Cc1ccc(-c2cccc(C(=O)N3CCC(O)(Cn4cnn5cccc5c4=O)CC3)c2)s1` [Compound I-20, 3-((4-hydroxy-1-(3-(5-methylthiophen-2-yl)benzoyl)piperidin-4-yl)methyl)pyrrolo[2,1-f][1,2,4]triazin-4(3H)-one], the IC50 is more than 10 µM.
Next, `O=C(c1ccc(Cc2cccs2)cc1)N1CCC(O)(Cn2cnn3cccc3c2=O)CC1` [Compound I-70, 3-((4-hydroxy-1-(4-(thiophen-2-ylmethyl)benzoyl)piperidin-4-yl)methyl)pyrrolo[2,1-f][1,2,4]triazin-4(3H)-one]: 1 to 10 µM.
Regarding `Cc1ccc2c(=O)n(CC3(O)CCN(C(=O)C(C)Cc4ccccc4)CC3)cnn12` (stereo not drawn) [Compound I-77, 3-((4-hydroxy-1-(2-methyl-3-phenylpropanoyl)piperidin-4-yl)methyl)-7-methylpyrrolo[2,1-f][1,2,4]triazin-4(3H)-one], the IC50 is 1 to 10 µM.
The value for `O=C(c1ccccc1)N1CCC(O)(Cn2cnn3c(-c4ccccc4)ncc3c2=O)CC1` [Compound I-115, 3-((1-benzoyl-4-hydroxypiperidin-4-yl)methyl)-7-phenylimidazo[5,1-f][1,2,4]triazin-4(3H)-one] was 1 to 10 µM; that for `Cc1ccccc1-c1cccc(C(=O)N2CCC(O)(Cn3cnn4cccc4c3=O)CC2)c1` [Compound I-6, 3-((4-hydroxy-1-(2′-methyl-[1,1′-biphenyl]-3-carbonyl)piperidin-4-yl)methyl)pyrrolo[2,1-f][1,2,4]triazin-4(3H)-one] was 1 to 10 µM; that for `CN(C)C(=O)c1ccc(-c2ccc(C(=O)N3CCC(O)(Cn4cnn5cccc5c4=O)CC3)cc2)cc1` [Compound I-38, 4′-(4-hydroxy-4-((4-oxopyrrolo[2,1-f][1,2,4]triazin-3(4H)-yl)methyl)piperidine-1-carbonyl)-N,N-dimethyl-[1,1′-biphenyl]-4-carboxamide] was 1 to 10 µM.
Next, `O=C(c1ccc(-c2ccc(C(=O)N3CCC(O)(Cn4cnn5cccc5c4=O)CC3)c(Cl)c2)cc1)N1CCCCC1` [Compound I-79, 3-((1-(3-chloro-4′-(piperidine-1-carbonyl)-[1,1′-biphenyl]-4-carbonyl)-4-hydroxypiperidin-4-yl)methyl)pyrrolo[2,1-f][1,2,4]triazin-4(3H)-one]: 1 to 10 µM; `CC(CC(=O)N1CCC(O)(Cn2cnn3cc(Cl)cc3c2=O)CC1)c1ccccc1` (stereo not drawn) [Compound I-49, 6-chloro-3-((4-hydroxy-1-(3-phenylbutanoyl)piperidin-4-yl)methyl)pyrrolo[2,1-f][1,2,4]triazin-4(3H)-one]: 1 to 10 µM.
For `COc1cccc(NC(=O)Nc2cc3c(=O)n(CC4(O)CCN(C(=O)C5CC5)CC4)cnn3c2)c1` [Compound I-101, 1-(3-((1-(cyclopropanecarbonyl)-4-hydroxypiperidin-4-yl)methyl)-4-oxo-3,4-dihydropyrrolo[2,1-f][1,2,4]triazin-6-yl)-3-(3-methoxyphenyl)urea], the IC50 is more than 10 µM.
`Cc1ccc(NC(=O)Nc2cc3c(=O)n(CC4(O)CCN(C(=O)C5CC5)CC4)cnn3c2)c(C)c1` [Compound I-99, 1-(3-((1-(cyclopropanecarbonyl)-4-hydroxypiperidin-4-yl)methyl)-4-oxo-3,4-dihydropyrrolo[2,1-f][1,2,4]triazin-6-yl)-3-(2,4-dimethylphenyl)urea] had an IC50 of more than 10 µM.
The value for `O=C(CC1CCc2ccccc2C1)N1CCC(O)(Cn2cnn3cccc3c2=O)CC1` (stereo not drawn) [Compound I-58, 3-((4-hydroxy-1-(2-(1,2,3,4-tetrahydronaphthalen-2-yl)acetyl)piperidin-4-yl)methyl)pyrrolo[2,1-f][1,2,4]triazin-4(3H)-one] was more than 10 µM.
For the compound `O=C(C1CCN(c2nc3ccccc3o2)CC1)N1CCC(O)(Cn2cnn3cccc3c2=O)CC1` [Compound I-33, 3-((1-(1-(benzo[d]oxazol-2-yl)piperidine-4-carbonyl)-4-hydroxypiperidin-4-yl)methyl)pyrrolo[2,1-f][1,2,4]triazin-4(3H)-one], the IC50 was more than 10 µM.
Take `Cc1ccc(NC(=O)Nc2cc3c(=O)n(CC4(O)CCN(C(=O)C5CC5)CC4)cnn3c2)cc1` [Compound I-89, 1-(3-((1-(cyclopropanecarbonyl)-4-hydroxypiperidin-4-yl)methyl)-4-oxo-3,4-dihydropyrrolo[2,1-f][1,2,4]triazin-6-yl)-3-(p-tolyl)urea]: the IC50 was more than 10 µM.

The values above are taken from patent US11795171B2, “Pyrrolotriazinones and imidazotriazinones as ubiquitin-specific protease 7 inhibitors” (Valo Health, Inc., priority 2014, dated 2023).
